Experimental data published in patent US9187524B2, “Broad spectrum antibiotic arylomycin analogs” (The Scripps Research Institute, priority 2010, dated 2015).
Converted amounts (≈) assume the structure as drawn. Where two headings read alike, the source gives them in different places.

Key:
[1] = system: lepB(P29S) S. aureus 8325; experiment: microbe, parasite or virus in culture; format: cell-based, Staphylococcus aureus; settings: for MIC: Staphylococcus aureus, read-out: MIC, S. aureus P29S
C. glutamicum = experiment: microbe, parasite or virus in culture; format: cell-based, Corynebacterium glutamicum; settings: Corynebacterium glutamicum; Table 4; read-out: MIC, C. glutamicum
[2] = system: wild type S. epidermidis RP62A; experiment: microbe, parasite or virus in culture; format: cell-based, Staphylococcus epidermidis; settings: for MIC: Staphylococcus epidermidis, read-out: MIC, S. epidermidis
R. opacus = experiment: microbe, parasite or virus in culture; format: cell-based; settings: Rhodococcus opacus; Table 4; read-out: MIC, R. opacus
wild type E. coli MG1655 = experiment: microbe, parasite or virus in culture; format: cell-based, Escherichia coli; settings: for MIC: Escherichia coli, MG1655, read-out: MIC, E. coli
[3] = system: lepB(P84L) E. coli MG1655; experiment: microbe, parasite or virus in culture; format: cell-based, Escherichia coli; settings: for MIC: Escherichia coli, MG1655, read-out: MIC, E. coli P84L
[4] = system: lepB(P84L) P. aeruginosa PAO1; experiment: microbe, parasite or virus in culture; format: cell-based, Pseudomonas aeruginosa; settings: for MIC: Pseudomonas aeruginosa, PAO1, read-out: MIC, P. aeruginosa P84L
L. lactis = experiment: microbe, parasite or virus in culture; format: cell-based, Lactococcus lactis; settings: Lactococcus lactis, Table 4
S. pneumoniae = experiment: microbe, parasite or virus in culture; format: cell-based, Streptococcus pneumoniae
R. equi = experiment: microbe, parasite or virus in culture; format: cell-based; settings: Rhodococcus (subgen. Prescottella) equi; Table 4
B. brevis = experiment: microbe, parasite or virus in culture; format: cell-based, Brevibacillus brevis; settings: for MIC: Brevibacillus brevis, Table 4, read-out: MIC, B. brevis
C. efficiens = experiment: microbe, parasite or virus in culture; format: cell-based; settings: Corynebacterium efficiens, Table 4; read-out: MIC, C. efficiens
S. agalactiae = experiment: microbe, parasite or virus in culture; format: cell-based, Streptococcus agalactiae
S. pyogenes = experiment: microbe, parasite or virus in culture; format: cell-based, Streptococcus pyogenes
wild type S. aureus 8325 = experiment: microbe, parasite or virus in culture; format: cell-based, Staphylococcus aureus
[5] = system: wild type P. aeruginosa PAO1; experiment: microbe, parasite or virus in culture; format: cell-based, Pseudomonas aeruginosa
[6] = system: spsB(S29P) S. epidermidis RP62A; experiment: microbe, parasite or virus in culture; format: cell-based, Staphylococcus epidermidis
[7] = system: S. epidermidis ATCC 35984; experiment: MIC; format: cell-based; settings: Table 1

Molecule	MIC, Resistant Sa (wild type S. aureus 8325)	MIC, Sensitive Sa [1]	MIC, Sensitive Se [2]	MIC, Resistant Ec (wild type E. coli MG1655)	MIC, Sensitive Ec [3]	MIC, Resistant Pa [5]	MIC, Sensitive Pa [4]	MIC, Resistant Se [6]	fold loss of activity against sensitized S. aureus relative to arylomycin C16 [1]	fold loss of activity against sensitized P. aeruginosa relative to arylomycin C16 [4]	other results
CCCCCCCCCCCCCCCC(=O)N(C)[C@H](CO)C(=O)N[C@H](C)C(=O)NCC(=O)N(C)[C@@H]1C(=O)NC(C)C(=O)N[C@H](C(=O)O)Cc2cc(c(O)c([N+](=O)[O-])c2)-c2cc1ccc2O (stereo partly shown) [Arylomycin B-C16]	–	–	–	–	–	–	–	–	–	–	MIC [1]: 8 µg/mL (≈ 8.64 µM); MIC (C. glutamicum): 2 µg/mL (≈ 2.16 µM); MIC [2]: 0.13 µg/mL (≈ 0.14 µM); MIC (R. opacus): 4 µg/mL (≈ 4.32 µM); MIC (wild type E. coli MG1655): > 64 µg/mL; MIC [3]: 2 µg/mL (≈ 2.16 µM); MIC [4]: 4 µg/mL (≈ 4.32 µM); MIC (L. lactis): 32 µg/mL (≈ 34.6 µM); MIC (S. pneumoniae; Streptococcus pneumoniae, Table 4, read-out: MIC, S. pneumoniae): 16 µg/mL (≈ 17.3 µM); MIC, S. pneumoniae (S. pneumoniae; Table 14): 16 µg/mL (≈ 17.3 µM); MIC (R. equi): 32 µg/mL (≈ 34.6 µM); MIC (B. brevis): > 64 µg/mL; activity against B. brevis (B. brevis; MHBII broth and nutrient broth): no activity; MIC (C. efficiens): 16 µg/mL (≈ 17.3 µM); fold more activity against Streptococcus agalactiae than arylomycin C16 (S. agalactiae): greater than 16 fold; MIC (S. agalactiae; Streptococcus agalactiae, Table 4, read-out: MIC, S. agalactiae): 8 µg/mL (≈ 8.64 µM); MIC, S. agalactiae (S. agalactiae; Table 14): 8 µg/mL (≈ 8.64 µM); MIC (S. pyogenes; Streptococcus pyogenes, Table 4, read-out: MIC, S. pyogenes): 4 µg/mL (≈ 4.32 µM); MIC, S. pyogenes (S. pyogenes; Table 14): 4 µg/mL (≈ 4.32 µM)
CCCCCCCCCCCCCCCC(=O)N[C@H](CO)C(=O)N[C@H](C)C(=O)NCC(=O)N(C)[C@@H]1C(=O)N[C@@H](C)C(=O)N[C@H](C(=O)O)Cc2ccc(O)c(c2)-c2cc1ccc2O [Compound 17]	>64 µg/mL	16 µg/mL (≈ 18.5 µM)	1 µg/mL (≈ 1.15 µM)	>64 µg/mL	4 µg/mL (≈ 4.61 µM)	>64 µg/mL	>64 µg/mL	32 µg/mL (≈ 36.9 µM)	–	–	–
CCCCCCCCCCCCCCCC(=O)N(C)[C@H](CO)C(=O)N(C)[C@H](C)C(=O)NCC(=O)N(C)[C@@H]1C(=O)N[C@@H](C)C(=O)N[C@H](C(=O)O)Cc2ccc(O)c(c2)-c2cc1ccc2O [Compound 18]	>64 µg/mL	>64 µg/mL	>64 µg/mL	>64 µg/mL	>64 µg/mL	>64 µg/mL	>64 µg/mL	>64 µg/mL	–	–	–
CCCCCCCCCCCCCCCC(=O)N1CC(O)CC1C(=O)NC(C)C(=O)NCC(=O)N(C)C1C(=O)NC(C)C(=O)NC(C(=O)O)Cc2ccc(O)c(c2)-c2cc1ccc2O (stereo not shown) [Compound 19]	>64 µg/mL	4 µg/mL (≈ 4.48 µM)	4 µg/mL (≈ 4.48 µM)	>64 µg/mL	>64 µg/mL	>64 µg/mL	>64 µg/mL	8 µg/mL (≈ 8.96 µM)	–	–	–
CCCCCCCCCCCCCCCC(=O)N(C)C(CO)CCC(=O)NC(C)C(=O)NCC(=O)N(C)C1C(=O)NC(C)C(=O)NC(C(=O)O)Cc2ccc(O)c(c2)-c2cc1ccc2O (stereo not shown) [Compound 24]	16 µg/mL (≈ 17.6 µM)	4 µg/mL (≈ 4.4 µM)	8 µg/mL (≈ 8.8 µM)	>64 µg/mL	>64 µg/mL	>64 µg/mL	>64 µg/mL	16 µg/mL (≈ 17.6 µM)	–	–	–
CCCCCCCCCCCCCCCC(=O)N(C)[C@H](CO)C(=O)N[C@H](C)C(=O)NCC(=O)N(C)[C@@H]1C(=O)NCC(=O)N[C@H](C(=O)O)Cc2ccc(O)c(c2)-c2cc1ccc2O [Compound 26]	–	–	–	–	–	–	–	–	> 16 fold	> 16 fold	fold loss of activity against S. epidermidis relative to arylomycin C16 [2]: 32 fold; fold loss of activity against sensitized E. coli relative to arylomycin C16 [3]: 32 fold
CCCCCCCCCCCCCCCC(=O)N(C)C(CO)C(=O)NC(C)C(=O)NCC(=O)N(C)C1C(=O)NC(CCCC)C(=O)NC(C(=O)O)Cc2ccc(O)c(c2)-c2cc1ccc2O (stereo not shown) [Compound 29]	–	–	–	–	–	–	–	–	32 fold	–	–
CCCCCCCCCCCCCCCC(=O)N(C)C(CO)C(=O)NC(C)C(=O)NCC(=O)N(C)C1C(=O)NC(CCCCC)C(=O)NC(C(=O)O)Cc2ccc(O)c(c2)-c2cc1ccc2O (stereo not shown) [Compound 30]	–	–	–	–	–	–	–	–	32 fold	–	–
CCCCCCCCCCCCCCCC(=O)N(C)C(CO)C(=O)NC(C)C(=O)NCC(=O)N(C)C1C(=O)NC(CC(F)(F)F)C(=O)NC(C(=O)O)Cc2ccc(O)c(c2)-c2cc1ccc2O (stereo not shown) [Compound 33]	–	–	–	–	–	–	–	–	at least 16 fold	at least 16 fold	fold loss of activity against S. epidermidis relative to arylomycin C16 [2]: 32 fold; fold loss of activity against sensitized E. coli relative to arylomycin C16 [3]: 8 fold
CCCCCCCCCCCCCCCC(=O)N(C)C(CO)C(=O)NC(C)C(=O)NCC(=O)N(C)C1C(=O)NC(C(C)C)C(=O)NC(C(=O)O)Cc2ccc(O)c(c2)-c2cc1ccc2O (stereo not shown) [Compound 34]	–	–	–	–	–	–	–	–	–	4 fold	–
CCCCCCCCCCCCCCCC(=O)N(C)C(CO)C(=O)NC(C)C(=O)NCC(=O)N(C)C1C(=O)NC(CC(C)C)C(=O)NC(C(=O)O)Cc2ccc(O)c(c2)-c2cc1ccc2O (stereo not shown) [Compound 35]	–	–	–	–	–	–	–	–	–	> 16 fold	–
CCCCCCCCCCCCCCCC(=O)N(C)[C@H](CO)C(=O)N[C@H](C)C(=O)NCC(=O)N(C)[C@@H]1C(=O)N[C@@H](C)C(=O)N[C@H](C(=O)O)Cc2cc(N)c(O)c(c2)-c2cc1ccc2O [Compound 36]	–	–	–	–	–	–	–	–	32 fold	8 fold	MIC [1]: 64 µg/mL (≈ 71.4 µM); MIC [2]: 8 µg/mL (≈ 8.93 µM); fold loss of activity against S. epidermidis relative to arylomycin C16 ([2]; sensitive (wild type) strain): 32 fold; MIC (wild type E. coli MG1655): > 64 µg/mL; fold loss of activity against sensitized E. coli relative to arylomycin C16 [3]: 8 fold; MIC [3]: 16 µg/mL (≈ 17.9 µM); MIC [4]: 32 µg/mL (≈ 35.7 µM); MIC (B. brevis): > 64 µg/mL
Arylomycin A2 [reference compound]	–	–	–	–	–	–	–	–	–	–	MIC, S. aureus 8325 (wild type S. aureus 8325; Table 1): >128 µM; MIC, S. epidermidis ATCC 35984 [7]: 1 µM; MIC, E. coli MG1655 (wild type E. coli MG1655; Table 1): >128 µM
